In patent US7033829B2, “Method to inhibit cell growth using oligonucleotides” (Trustees of Boston University, priority 2000, dated 2006):
Oligonucleotides are written 5' to 3', each unit as a sugar letter and its base; * is a phosphorothioate linkage, no mark a phosphodiester; rarer units and linkages stand in square brackets, end groups in braces. Plain capitals give the bases only. d = 2'-deoxy (DNA); {P} = phosphate

Columns and labels:
[1] = system: mitochondrial enzymes ATPase, cytochrome c oxidase and NADH dehydrogenase genes; test: DNA microarray / RT-PCR / northern of mitochondrial genes in SCC12F; type: cell-based, human
Text: Exposure of keratinocytes to UVB irradiation affects the expression of genes involved in cell cycle arrest, DNA repair and cytokine production. Single-stranded oligonucleotides sharing sequence homology with the telomere 3′ overhang, when introduced into cells, mimic these UV effects. To identify other genes that may be similarly modulated, cells of keratinocyte origin (SCC12F; a human epidermal squamous cell carcinoma line provided by Dr. James Rheinwald of Harvard University) were exposed to solar simulated irradiation (SSR) (20 mJ/cm^2, measured at 285±5 nm), to an 11-base oligonucleotide (pGTTAGGGTTAG; SEQ ID NO:5) homologous to the telomere overhang (T-oligo), or to a complementary sequence as control [pCTAACCCTAAC; (SEQ ID NO:9) control oligonucleotide]. […] These are mitochondrial-transcribed genes whose encoded proteins participate in cellular respiration.

[2] = system: Human melanoma cell lines CRL 1424, Malma, Sk Mel 2, and Sk Mel 28; test: Cell yield of human melanoma cell lines; type: cell-based; conditions: 100 μM; one week; any of four cell lines
Method: Human melanoma cell lines CRL 1424, Malma, Sk Mel 2, and Sk Mel 28 were obtained from the American Type Culture Collection (ATCC). The cell lines were maintained in DME+2% calf serum, and dosed with either water (diluent) with DME, or 100 μM T2 in DME. One week after dosage, cells were collected and counted by Coulter™ counter.

[3] = system: Normal human neonatal keratinocyte cells; test: Cell yield of normal keratinocytes; type: cell-based; conditions: 100 μM
Method: Normal human neonatal keratinocyte cells were cultured as described above in Example 1 for SCC12F cells, and treated with either 100 μM T2 or diluent as a control. Cells were harvested for cell counts. The cell yield in cultures treated with T2 was reduced by 63% compared to that of paired control cultures after three days (FIG. 5).

[4] = system: BP DNA adducts (CAT reporter plasmid) in H1299 cells; test: Repair of BP-damaged CAT reporter plasmid in H1299 cells; type: cell-based, human
Method: Preconfluent cultures of H1299 cells were transfected with an expression vector containing the wild type human p53 cDNA under the control of the human cytomegalovirus promoter/enhancer (Dr. Bert Vogelstein, Johns Hopkins Oncology Center). Control transfections were performed using the same vector lacking the p53 cDNA. Transfections were carried out as described previously.
The pCAT vector (Promega) was treated with benzo[a]pyrene-7,8-diol-9,10-epoxide (BP) as described (Athas et al. Cancer Res 1991) to produce less damaged and more damaged plasmids, previously shown to be instructive in studies examining different repair capacities in human cells. Based on the incorporation of ^3H-BPDE into the DNA, the less damaged plasmid contained 25 adducts per 5 kb plasmid and the more damaged plasmid contained 50 adducts. This non-replicating vector contains the chloramphenicol acetyltransferase gene under control of SV40 promoter and enhancer sequences. Human keratinocytes and p53-transfected H1299 cells were pre-treated with either 100 μM pTpT or an equal volume of diluent (DMEM) alone for 48 hours, then transfected with either BP-modified pCAT-control vector (0.5 μg/ml) or unmodified vector (0.5 μg/ml) together with PSV-β-galactosidase control vector (0.5 μg/ml). Cells were collected in a reporter lysis buffer (Promega) 24 hours after transfection. CAT enzyme activity was determined using the liquid scintillation counting protocol and components of the assay system kit (Promega). ^14C-labeled chloramphenicol[50–60 mCi(1.85–2.22 GBq)/mmol] was purchased from New England Nuclear (Boston, Mass.). CAT activity was normalized with β-galactosidase activity.
To confirm that pTpT enhances repair of BP-DNA adducts, at least in part, through p53 activation, p53-null H1299 cells were transfected with the p53 expression vector, and p53 protein expression was then confirmed by western blot analysis 48 hours after transfection.

Substance | downregulation of 8 genes (microarray) [1] [%] | genes downregulated as early as ([1]; RT-PCR and northern blot) [h] | cell yields [2] | cell yield reduced compared to paired control cultures ([3]; after three days) [%] | number of cells ([3]; three days (control: one population doubling)) | plasmid repair efficiency versus diluent pre-treated cells ([4]; p53+ H1299 cells, high level of BP damage) | plasmid repaired more efficiently than in diluent pre-treated cells ([4]; p53+ H1299 cells, low level of BP damage) | repair capacity versus diluent ([4]; p53- H1299 cells)
pGTTAGGGTTAG (DNA {P}-dGdTdTdAdGdGdGdTdTdAdG) [SEQ ID NO: 5] | > 50 | 48 |  |  |  |  |  | 
thymidine dinucleotide [pTpT] |  |  | marked decreases in cell yields | 63 | remained the same | more than three times as efficiently | 80%±50% | the repair capacity was the same
